Data reported in patent publication US20080096897A1, “5-(1,1'Biphenyl)-4-Yl-5-(4-(4-Aminoacylphenyl)-Piperazin)-1-Yl-Pyrimidine-2,4,6,-Trione Derivatives, As Inhibitors Of Zinc Metallondopeptidases, Their Preparation And Use” (priority 2004, published 2008).
Like-named read-outs stand apart in the source and are kept apart here.

How the values were obtained:
recombinant human MMP14 = recombinant human MMP14 (Homo sapiens, UniProt P50281); assay: MMP inhibition on isolated enzymes, fluorigenic peptide substrate; assay type: biochemical
Description: (§1) The matrix metalloproteinase (MMP) inhibitory activity has been evaluated in a classical biochemical assay using fluorigenic peptide substrates. Briefly, a peptide bearing 1) a fluorescent group and 2) a quenching group bound to another amino acid of the peptide is submitted to the proteolytic action of an MMP. The cleavage of peptide bounds due to the MMP results in a dequenching of the fluorescent group. There is a direct relationship between the observed fluorescence and the activity of the enzyme. The MMP inhibiting activity of a given substance can then be assessed using this assay.
(§2) The compounds of the present invention have been assayed using this assay design with recombinant human MMP2, MMP14 and MMP16 and the peptide ZGly-Gly-ArgAMC, which is a well-known, commercially available substrate of MMPs.
(§3) The following IC50 values (inhibitor concentration required to inhibit 50% of the enzyme) have been obtained with the compounds prepared according to examples 2 to 5 and compared to a product of the state of the art, better known as Ro 28-2653. Ro 28-2653 is included in claim 1 of WO 01/25217.

recombinant human MMP16 = recombinant human MMP16 (Homo sapiens, UniProt P51512); assay: as above; assay type: biochemical
Sequence of recombinant human MMP16 (P51512 120-607): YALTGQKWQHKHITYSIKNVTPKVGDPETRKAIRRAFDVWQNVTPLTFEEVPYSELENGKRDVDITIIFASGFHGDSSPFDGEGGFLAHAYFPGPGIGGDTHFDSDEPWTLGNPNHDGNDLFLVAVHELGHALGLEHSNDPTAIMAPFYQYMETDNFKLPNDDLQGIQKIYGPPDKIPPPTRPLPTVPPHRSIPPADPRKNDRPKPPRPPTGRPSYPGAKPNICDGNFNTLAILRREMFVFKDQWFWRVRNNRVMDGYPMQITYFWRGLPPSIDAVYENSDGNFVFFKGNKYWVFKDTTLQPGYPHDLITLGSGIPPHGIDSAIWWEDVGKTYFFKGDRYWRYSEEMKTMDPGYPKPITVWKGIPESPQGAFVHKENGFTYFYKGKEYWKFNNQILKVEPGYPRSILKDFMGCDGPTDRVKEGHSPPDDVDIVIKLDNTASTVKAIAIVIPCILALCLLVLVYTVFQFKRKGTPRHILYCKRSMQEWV
Description: as §1, §2, §3

recombinant human MMP2 = biological target: T1, recombinant human MMP2 (Homo sapiens, UniProt P08253); assay: as above; assay type: biochemical
T1 sequence (P08253 110-660): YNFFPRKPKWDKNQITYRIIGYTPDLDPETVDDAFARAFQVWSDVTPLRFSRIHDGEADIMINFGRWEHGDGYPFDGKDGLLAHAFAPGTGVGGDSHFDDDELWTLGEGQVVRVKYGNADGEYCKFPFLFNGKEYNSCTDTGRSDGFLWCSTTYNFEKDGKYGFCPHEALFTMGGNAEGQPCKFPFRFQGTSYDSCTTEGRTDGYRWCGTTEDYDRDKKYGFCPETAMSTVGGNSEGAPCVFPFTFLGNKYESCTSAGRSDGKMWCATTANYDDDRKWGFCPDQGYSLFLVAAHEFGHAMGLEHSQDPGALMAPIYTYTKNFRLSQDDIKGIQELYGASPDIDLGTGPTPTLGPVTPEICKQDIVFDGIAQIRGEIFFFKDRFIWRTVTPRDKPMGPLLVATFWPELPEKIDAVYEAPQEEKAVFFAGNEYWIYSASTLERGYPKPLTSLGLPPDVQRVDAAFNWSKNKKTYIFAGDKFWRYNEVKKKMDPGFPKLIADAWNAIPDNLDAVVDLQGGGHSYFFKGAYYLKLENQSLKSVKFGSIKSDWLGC
Description: as §1, §2, §3

[1] = test system: capillary vessel outgrowth from aorta rings; assay: aorta ring angiogenesis assay; assay type: cell-based; conditions: 10 μM in culture medium, rat aorta rings in collagen, 6-9 days
Experimental: Compound 5-(1,1′-biphenyl)-4-yl-5-{4-[4-(2,5-dioxopyrrolidin-1-yl)phenyl]piperazin-1-yl}pyrimidine-2,4,6(1H,3H,5H)-trione prepared according to example 4 has also been assayed in an aorta ring angiogenesis assay.
Briefly, in the aorta ring assay, fresh slices (ring) of aorta dissected from rat were embedded in collagen1 and then cultivated in Petri dishes after addition of culture medium (n=6). […] The effect of the compound of example 4 (10 μM) on angiogenesis was evaluated by its potency to stimulate or to inhibit the outgrowth of the capillary vessels when it was added to the culture medium (n=6).

SMILES: O=C1CCC(=O)N(c2ccc(N3CCN(C4(c5ccc(-c6ccccc6)cc5)C(=O)NC(=O)NC4=O)CC3)cc2)C1 [example 5, 5-(1,1′-Biphenyl)-4-yl-5-{4-[4-(2,5-dioxopiperidin-1-yl)phenyl]piperazin-1-yl}pyrimidine-2,4,6(1H,3H,5H)-trione]
- IC50 (recombinant human MMP14; recombinant human MMP14, substrate ZGly-Gly-ArgAMC, read-out: IC50 (nM) values on isolated enzymes MMP-14): 23 nM
- IC50 (recombinant human MMP16; recombinant human MMP16, substrate ZGly-Gly-ArgAMC, read-out: IC50 (nM) values on isolated enzymes MMP-16): 20 nM
- IC50 (recombinant human MMP2; recombinant human MMP2, substrate ZGly-Gly-ArgAMC, read-out: IC50 (nM) values on isolated enzymes MMP-2): 93 nM

SMILES: O=C1NC(=O)C(c2ccc(-c3ccccc3)cc2)(N2CCN(c3ccc(N4C(=O)CCC4=O)cc3)CC2)C(=O)N1 [example 4, 5-(1,1′-Biphenyl)-4-yl-5-{4-[4-(2,5-dioxopyrrolidin-1-yl)phenyl]piperazin-1-yl}pyrimidine-2,4,6(1H,3H,5H)-trione]
- IC50 (recombinant human MMP14): 13 nM
- IC50 (recombinant human MMP16): 21 nM
- IC50 (recombinant human MMP2): 75 nM
- effect on capillary vessel outgrowth (angiogenesis) [1]: severely inhibit the capillary vessel outgrowth

SMILES: O=C1NC(=O)C(c2ccc(-c3ccccc3)cc2)(N2CCN(c3ccc([N+](=O)[O-])cc3)CC2)C(=O)N1 [Ro 28-2653, reference compound]
- IC50 (recombinant human MMP14): 96 nM
- IC50 (recombinant human MMP16): 91 nM
- IC50 (recombinant human MMP2): 246 nM

SMILES: O=C(O)CCCC(=O)Nc1ccc(N2CCN(C3(c4ccc(-c5ccccc5)cc4)C(=O)NC(=O)NC3=O)CC2)cc1 [example 3, 4-{4-[4-(5-(1,1′-Biphenyl)-4-yl-2,4,6-trioxoperhydropyrimidin-5-yl)piperazin-1-yl]-phenylcarbamoyl}butyric acid]
- IC50 (recombinant human MMP14): 26 nM
- IC50 (recombinant human MMP16): 49 nM
- IC50 (recombinant human MMP2): 98 nM

SMILES: O=C(O)CCC(=O)Nc1ccc(N2CCN(C3(c4ccc(-c5ccccc5)cc4)C(=O)NC(=O)NC3=O)CC2)cc1 [example 2, N-{4-[4-(5-(1,1′-Biphenyl)-4-yl-2,4,6-trioxoperhydropyrimidin-5-yl)piperazin-1-yl]-phenyl}succinamic acid]
- IC50 (recombinant human MMP14): 29 nM
- IC50 (recombinant human MMP16): 39 nM
- IC50 (recombinant human MMP2): 110 nM
